Test results as given in US9648880B2, “Antifungal agents and uses thereof” (University of Massachusetts, priority 2012, dated 2017).

Experiments:
C. albicans SC5314-GFP = assay: GFP-based adhesion assay; type: cell-based; conditions: Candida albicans, SC5314, read-out: IC50 in the GFP-based adhesion assay
Protocol: To do this, we measured adhesion of cells plated and washed as before, but here using a C. albicans strain encoding GFP. This allowed us to measure adhesion both in a fluorescence plate reader and by microscopy (FIGS. 1D and 1E). Indeed, these GFP-based assays confirmed that all the compounds effective at 25 μM in the alamarBlue-based assay impair C. albicans adhesion to polystyrene. We conclude that our chemical screen detected multiple compounds that block adhesion to polystyrene, and that these can be assayed via multiple detection methods.
SC5314-GFP and edt1^−/−-GFP strains were pregrown overnight in SC+0.2% glucose media at 30° C., diluted into fresh SC+0.2% glucose media to a final concentration of 5×10^6 cells/ml (equivalent to 0.5 OD600/ml) and plated onto Immulon 2HB 96-well plates, with each well receiving 0.1 OD of cells. DMSO or compounds resuspended in DMSO were added to the desired final concentration (1% vol/vol of DMSO was maintained). Plates were then incubated for 4 hours at 37° C. […] Fluorescence was measured using a Synergy HT plate reader (BioTek) following addition of […] of PBS/well. For each experiment, untagged SC5314 was analyzed simultaneously to determine background fluorescence that was subtracted from the signal from each well.

[1] = tested on: C. albicans SC5314 on excised murine vaginal mucosal tissue; assay: ex vivo mouse vaginal mucosal infection (VVC); conditions: 24 h
Protocol: FIG. 6A-6B. Effects on metazoan hosts. FIG. 6A is a graph showing the lifespan of C. elegans exposed to C. albicans treated with 12.5 μM compound #4 (lower graph line) or 12.5 μM fluconazole (upper graph line) compared to untreated (middle graph line). […] FIG. 6B is a series of photographs showing microscopic analysis of ex vivo vaginal mucosal biofilm formation. Mice were administered estrogen and vaginae were harvested. Tissues were either uninfected, or pretreated with DMSO or 50 μM compound #4, and then inoculated with C. albicans SC5314 (10^6 blastoconidia) and incubated for 24 h. Tissues were bisected and processed for scanning electron microscopy (SEM), or confocal microscopy (CM) after staining with Calcofluor to detect yeast (blue) and Concavalin A to visualize extracellular matrix (red). SEM images were taken at 1000× magnification, and CM images at 600× magnification.
In this assay, excised murine vaginal mucosal tissue is tested as a substrate for infection by Candida cells, providing a rapid and simple method for optimizing treatment conditions prior to in vivo infection assays. The other readout in the assay is a measure of the number of viable fungal cells, expressed as colony forming units (CFU).
These ex vivo infections were performed as described (Harriott, 2010).

C. albicans = assay: pretreatment (pre-coating) of polystyrene, then adhesion assay; type: cell-based, Candida albicans
Protocol: FIGS. 11A-11D. Compound #4 can coat surfaces and reduce subsequent fungal adhesion. […] is a graph showing the results of pretreatment of polystyrene with candidate compounds. Indicated compounds at 50 μM were incubated in polystyrene 96-well plates overnight. Wells were washed three times with 100 μl of PBS. C. albicans adhesion was then measured using the vital dye alamarBlue, with no additional drug treatment. FIG. 11B is a graph showing titration of compounds #1, 4 and 9 for pre-binding to polystyrene. Indicated concentrations of compounds were pre-incubated with polystyrene plates as above prior to the adhesion assays. FIG. 11C is a graph showing the inhibition of adhesion by pretreatment of C. albicans SC5314 cells with compound #4 prior to introduction to plastic. SC5314 cells were treated with 25 μM compound #4 or DMSO in liquid culture prior to their introduced into polystyrene plates. Cells were washed with PBS prior to resuspension into SCM and seeding into 96-well plates for adhesion assays using alamarBlue detection of remaining cells. The pretreated cells were assayed alongside a standard adhesion assay in which compound #4 and the cells were coincubated with the plastic simultaneously. FIG. 11D is a graph showing the results of an assay performed as in FIG. 11C, except that SC5314-GFP cells were used, and then detected via fluorescence measurement. edt1 indicates non-adherent mutant cells, PBS indicates background fluorescence in absence of cells.
Because compounds #4 and #9 contain a nitrophenyl group (FIG. 3A), solutions containing these appear yellow. […] To test this idea, we preincubated polystyrene plates with each of the compounds that affect adhesion to polystyrene, washed to remove unbound compound molecules, and then added C. albicans cells to measure adhesion without further addition of compound.
To distinguish the three pre-coating compounds, we then titrated them in this pre-coating assay (FIG. 11B). […] We also tested whether compound #4 could affect fungal adhesion when it was used to pre-coat C. albicans cells rather than the polystyrene surface. […] We conclude that compound #4 has the ability to make polystyrene and the C. albicans cell surface less amenable to subsequent adhesion.

C. albicans SC5314 = assay: alamarBlue-based polystyrene adhesion assay; type: cell-based, Candida albicans; conditions: for C. albicans adhesion to polystyrene: 25 μM
Description: We prioritized the candidate compounds by testing the dose-dependence of their effects. Because of the laborious washing required to remove background crystal violet dye staining, we developed adhesion assays using alternative detection reagents. Previous experiments screens have used the vital dye alamarBlue to measure Candida viability (Lafleur, J. Antimicrob Chemother. 66: 820-826, 2011; Youngsaye supra), so we tested this reagent as a way to measure cells remaining adhered after washing. […] The majority of the reordered compounds were effective at reducing Candida adhesion at 50 μM, the concentration originally tested during the screen. […] Although compounds that were still effective at 25 μM were less generally less so at 7.5 μM (FIG. 1C), many candidates still reduced adhesion by >50% at this lower concentration.
Overnight cultures of SC5314 and edt1^−/− cells were grown and plated onto Immulon 2HB 96-well microtiter plates and treated with small molecules as described above. Following incubations, media was decanted and plates were washed twice with 100 μl/well PBS. alamarBlue (Life Technologies) was resuspended to a final concentration of 5% in RPMI buffered with 0.165 M MOPS and then 100 μl was added to each well, followed by further incubation for 2 hours at 37° C. Fluorescence signals at 555Ex/585Em were read using a SpectraMax M5 Plate reader (Molecular Devices).

| Structure (SMILES) | IC50 (C. albicans SC5314-GFP) [nM] | CFU recovered ([1]; 50 μM pretreatment) | extracellular matrix (Concavalin A staining) ([1]; 50 μM) | hyphae formation or ECM production ([1]; 50 μM) | subsequent adhesion of C. albicans to pre-coated polystyrene (C. albicans; 12.5 μM or below) | subsequent adhesion of C. albicans to pre-coated polystyrene (C. albicans; 25 μM) | subsequent adhesion of C. albicans to pre-coated polystyrene (C. albicans; 50 μM, overnight, washed) | C. albicans adhesion to polystyrene (C. albicans SC5314) | synergy on adhesion upon combining compound #4 and compound #12 (C. albicans SC5314; #4 1.5 μM with #12 4 and 6 μM) | effect on adhesion of compound alone (C. albicans SC5314; compound #4 1.5 μM, compound #12 4 and 6 μM) |
| --- | --- | --- | --- | --- | --- | --- | --- | --- | --- | --- |
| Cc1ccc(C(=O)N2CCN(c3ccc([N+](=O)[O-])cc3)CC2)cc1Cl [Compound 4] | ~3000 | did not observe significant differences | still formed a carbohydrate-rich extracellular matrix | only partially inhibits hyphae formation or ECM production | much less so | strongly inhibitory | efficiently inhibited subsequent adhesion | effective adhesion inhibitors | did not further reduce adhesion | partial effects |
| O=C(c1ccc(Cl)c(Cl)c1)N1CCN(c2ccc([N+](=O)[O-])cc2)CC1 [Compound 9] | – | – | – | – | much less so | strongly inhibitory | efficiently inhibited subsequent adhesion | effective adhesion inhibitors | – | – |
